As usually defined, the melting point is the temperature, or range, at which the solid turns liquid.

The results in this text go back to US20040077697A1, “2-Acylaminothiazole derivative or its salt” (priority 2001, published 2004).

One data set has as its system human CD34+ cell. In words: Megakaryocyte colony formation promoting action. The data set is classed as cell-based. As to conditions: MegaCult-C, 10 to 14 days, colonies per well, average of three. As for the experimental part: <Megakaryocyte Colony Formation Promoting Action>
A human CD34^+ cell was cultured at 37° C. for 10 to 14 days in the presence of a test compound in a 2-well chamber slide by using MegaCult™-C (produced by StemCell Technologies). According to the manufacturer's instructions, the slide was dehydrated, fixed, and then stained with an anti-glycoprotein IIb/IIIa antibody. A colony containing three or more of the glycoprotein IIb/IIIa positive megakaryocyte cells was defined as one colony, and the number of colonies per well was microscopically measured. The assay was replicated thrice, and an average value was evaluated as the number of megakaryocyte colonies.

`COc1cc(OC)cc(C(=O)Nc2nc(-c3ccccc3)c(N3CCOCC3)s2)c1.Cl` gave a melting point of 169 to 172 °C.
As for `COc1cc(C(=O)Nc2nc(-c3ccc(F)cc3)c(N3CCN(C4CCCCC4)CC3)s2)ccn1` [Example 2, N-[5-(4-cyclohexylpiperazin-1-yl)-4-(4-fluorophenyl)thiazol-2-yl]-2-methoxyi sonicotinamide], the melting point lay within 263 to 266 °C. In addition, in the data set on human CD34+ cell (test compound 0.3 μM), the “Number of megakaryocyte colonies” value worked out at 5.2. Besides, in the data set on human CD34+ cell (test compound 1.0 μM), the “Number of megakaryocyte colonies” value turned out to be 19.0. Besides, the “Number of megakaryocyte colonies” value in the data set on human CD34+ cell (test compound 3.0 μM) came to 34.8.
Turning to `Cl.O=C(Nc1nc(-c2ccc(F)cc2)c(N2CCN(C3CCCCC3)CC2)s1)c1ccc(O)c(Cl)c1`, the melting point was 270 to 272 °C (dec.).
